Assay results as given in patent US20240174727A1, “LONG-ACTING NATRIURETIC PEPTIDES AND USES THEREOF” (Eli Lilly and Company, priority 2022, published 2024).
Where two headings read alike, the source gives them in different places. Numbered stars: 1 amine (or outer) side, 2 acyl side, 3 side chain; on linkers, the order of the positions; unused ones are H or OH. Bridge positions count the residues as written; N and C are the ends. Square brackets hold non-standard residues; d marks the D form. * marks the point of attachment. PEG24 = NCCOCCOCCOCCOCCOCCOCCOCCOCCOCCOCCOCCOCCOCCOCCOCCOCCOCCOCCOCCOCCOCCOCCOCCOCCC(=O)O; C20 diacid = O=C(O)CCCCCCCCCCCCCCCCCCC(=O)*; γGlu = O=C(O)[C@H](CCC(=O)[*:2])N[*:1]; 4Pal = N[C@@H](Cc1ccncc1)C(=O)O; CH2 = C([*:1])[*:2]; βAla = NCCC(=O)O

Legend:
[1] = Pharmacokinetics in male Sprague Dawley rats; type: in vivo; conditions: rat, sc, mean, single subcutaneous administration of 200 nMol/kg, plasma; for half-life: read-out: t½ (converted)
Procedure: The pharmacokinetics of the exemplary analogs are evaluated following a single subcutaneous administration of […] to male Sprague Dawley rats. Blood samples are collected over 120 hours, and resulting individual plasma concentrations are used to calculate pharmacokinetic parameters. Peptide plasma (K3 EDTA) concentrations are determined using a qualified LC/MS method that measured the intact mass of the ANP polypeptide. Each peptide and an analog as an internal standard are extracted from 100% specie specified plasma using methanol with 0.1% formic acid. A Thermo Q-Exactive, High Resolution Instrument, and a Thermo Easy Spray PepMap are combined for LC/MS detection.

[2] = target: T1, human NPRA (Homo sapiens, UniProt P16066); assay: Human NPRA cGMP activity assay (HTRF) in HEK293 cells overexpressing NPRA; type: cell-based
T1 construct: Full-Length cDNA Cloning and Generation of Cell Lines Overexpressing Natriuretic Peptide Receptors (NPRs); expressed in transfected cells; host or cells: Jump-in T-Rex HEK293 cells, pJTI R4 CMV-TO MCS pA vector, tetracycline induction
T1 sequence (P16066 33-1061): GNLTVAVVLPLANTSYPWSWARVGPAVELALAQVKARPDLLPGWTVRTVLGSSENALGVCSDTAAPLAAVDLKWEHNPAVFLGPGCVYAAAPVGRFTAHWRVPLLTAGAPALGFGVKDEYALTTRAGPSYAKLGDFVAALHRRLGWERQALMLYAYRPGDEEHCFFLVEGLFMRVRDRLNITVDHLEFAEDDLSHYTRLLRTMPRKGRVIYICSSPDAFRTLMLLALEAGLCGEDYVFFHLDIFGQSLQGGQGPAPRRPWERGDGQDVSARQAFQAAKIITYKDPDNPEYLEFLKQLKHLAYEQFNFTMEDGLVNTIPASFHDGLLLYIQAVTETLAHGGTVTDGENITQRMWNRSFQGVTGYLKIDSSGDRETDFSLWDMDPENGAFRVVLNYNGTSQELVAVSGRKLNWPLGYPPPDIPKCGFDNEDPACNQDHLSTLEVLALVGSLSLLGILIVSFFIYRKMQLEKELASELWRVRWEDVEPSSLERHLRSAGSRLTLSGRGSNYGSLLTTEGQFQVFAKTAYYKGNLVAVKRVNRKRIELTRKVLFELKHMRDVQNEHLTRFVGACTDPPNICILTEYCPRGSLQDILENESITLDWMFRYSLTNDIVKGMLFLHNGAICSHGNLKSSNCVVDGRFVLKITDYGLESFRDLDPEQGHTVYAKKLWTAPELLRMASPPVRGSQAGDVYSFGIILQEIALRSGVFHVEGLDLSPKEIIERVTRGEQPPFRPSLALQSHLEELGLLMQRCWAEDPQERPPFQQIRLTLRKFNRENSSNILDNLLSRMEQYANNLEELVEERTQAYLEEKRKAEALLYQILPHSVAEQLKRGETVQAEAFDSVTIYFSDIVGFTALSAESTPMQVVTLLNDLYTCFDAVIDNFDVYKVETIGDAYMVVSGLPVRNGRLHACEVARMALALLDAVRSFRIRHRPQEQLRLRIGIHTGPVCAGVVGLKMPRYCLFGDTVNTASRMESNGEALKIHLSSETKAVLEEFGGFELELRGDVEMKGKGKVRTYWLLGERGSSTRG
Outline: (§1)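 Tetracycline-induced (300 ng/mL, 48 h) T-Rex HEK293 cells expressing NPRA, 4000 cells/well, treated 40 min at room temperature with polypeptide (8 points, 10 μM to 1 pM) in HBSS/HEPES buffer with 0.5 mM IBMX, pH 7.4. cGMP by HTRF, normalised to 100 nM amidated rat ANP and buffer.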

[3] = target: T2, rat NPRA (Rattus norvegicus, UniProt P18910); assay: Rat NPRA cGMP activity assay (HTRF) in HEK293 cells overexpressing NPRA; type: cell-based; conditions: assay buffer with 0.1% casein, read-out: cGMP Assay (EC50, pM) w/Casein rNPRA
T2 construct: Full-Length cDNA Cloning and Generation of Cell Lines Overexpressing Natriuretic Peptide Receptors (NPRs); expressed in transfected cells; host or cells: Jump-in T-Rex HEK293 cells, pJTI R4 CMV-TO MCS pA vector, tetracycline induction
T2 sequence (P18910 29-1057): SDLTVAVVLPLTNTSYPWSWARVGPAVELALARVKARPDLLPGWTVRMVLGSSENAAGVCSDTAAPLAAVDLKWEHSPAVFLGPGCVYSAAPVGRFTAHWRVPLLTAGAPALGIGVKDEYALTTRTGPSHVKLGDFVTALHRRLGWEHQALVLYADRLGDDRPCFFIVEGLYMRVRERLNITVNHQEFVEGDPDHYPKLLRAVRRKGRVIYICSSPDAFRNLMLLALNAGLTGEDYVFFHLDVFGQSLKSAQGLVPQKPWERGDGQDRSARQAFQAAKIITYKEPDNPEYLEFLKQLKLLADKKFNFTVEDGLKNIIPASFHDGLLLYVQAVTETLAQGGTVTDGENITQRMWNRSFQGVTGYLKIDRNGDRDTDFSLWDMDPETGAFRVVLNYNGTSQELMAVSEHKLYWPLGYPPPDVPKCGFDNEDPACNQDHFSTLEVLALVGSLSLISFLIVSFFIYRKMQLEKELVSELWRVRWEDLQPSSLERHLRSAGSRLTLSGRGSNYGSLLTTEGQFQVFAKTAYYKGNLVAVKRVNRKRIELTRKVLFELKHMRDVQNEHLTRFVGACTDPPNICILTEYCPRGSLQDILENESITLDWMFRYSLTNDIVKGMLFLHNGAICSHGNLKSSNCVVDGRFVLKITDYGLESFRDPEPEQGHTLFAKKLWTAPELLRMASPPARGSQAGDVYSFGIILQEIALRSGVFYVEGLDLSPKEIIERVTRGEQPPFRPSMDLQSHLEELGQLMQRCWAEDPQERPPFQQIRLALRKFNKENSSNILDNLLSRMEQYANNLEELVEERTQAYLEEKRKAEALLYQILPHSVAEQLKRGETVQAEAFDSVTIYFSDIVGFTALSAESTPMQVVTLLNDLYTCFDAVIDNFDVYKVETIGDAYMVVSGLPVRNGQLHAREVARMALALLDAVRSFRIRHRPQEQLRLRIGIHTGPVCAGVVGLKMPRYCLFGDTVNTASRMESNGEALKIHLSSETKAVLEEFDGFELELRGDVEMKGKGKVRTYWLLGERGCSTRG
Outline: as §1

Molecule | CL/F [1] | half-life [1] | EC50 ([2]; cGMP Assay (EC50, pM) w/Casein hNPRA, assay buffer with 0.1% casein) | EC50 [3] | EC50 ([2]; cGMP Assay (EC50, pM) w/BSA hNPRA, assay buffer with 0.1% BSA) | half-life ([1]; in vivo)
{C20 diacid-γGlu}-EKEKEKG[PEG24]EK[βAla]RSSCFGGKIDRIGHYSGLGCPSFRHGSPSSGAPPPS-NH2 (linker 15-31 via CH2) [Example 6] | 0.108 mL/min/kg | 17 h | 1530 pM | – | – | –
{C20 diacid-γGlu}-EKEKEKG[PEG24]S[4Pal]RRSSCFGGRIDRIGHQSGLGCPSFRHGGKSSGAPPPS-NH2 (linker 15-31 via CH2) [Example 75] | 0.182 mL/min/kg | 17 h | – | – | – | –
CC[C@H](C)[C@@H]1NC(=O)[C@H](CCCNC(=N)N)NC(=O)[C@H](CC(=O)O)NC(=O)[C@H]([C@@H](C)CC)NC(=O)[C@H](CCCNC(=N)N)NC(=O)[C@H](CCCCN)NC(=O)CNC(=O)[C@H](Cc2ccccc2)NC(=O)[C@@H](NC(=O)[C@H](CO)NC(=O)[C@H](CO)NC(=O)[C@H](CCCNC(=N)N)NC(=O)CCNC(=O)[C@H](CCCCN)NC(=O)[C@H](CCC(=O)O)NC(=O)CCOCCOCCOCCOCCOCCOCCOCCOCCOCCOCCOCCOCCOCCOCCOCCOCCOCCOCCOCCOCCOCCOCCOCCOCCNC(=O)CNC(=O)[C@H](CCCCN)NC(=O)[C@H](CCC(=O)O)NC(=O)[C@H](CCCCN)NC(=O)[C@H](CCC(=O)O)NC(=O)[C@H](CCCCN)NC(=O)[C@H](CCC(=O)O)NC(=O)CC[C@H](NC(=O)CCCCCCCCCCCCCCCCCCC(=O)O)C(=O)O)CSCSC[C@@H](C(=O)N2CCC[C@H]2C(=O)N[C@@H](CO)C(=O)N[C@@H](Cc2ccccc2)C(=O)N[C@@H](CCCNC(=N)N)C(=O)N[C@@H](Cc2c[nH]cn2)C(=O)NCC(=O)N[C@@H](CO)C(=O)N2CCC[C@H]2C(=O)N[C@@H](CO)C(=O)N[C@@H](CO)C(=O)NCC(=O)N[C@@H](C)C(=O)N2CCC[C@H]2C(=O)N2CCC[C@H]2C(=O)N2CCC[C@H]2C(=O)N[C@@H](CO)C(N)=O)NC(=O)CNC(=O)[C@H](CC(C)C)NC(=O)CNC(=O)[C@H](CO)NC(=O)[C@H](CCC(N)=O)NC(=O)[C@H](Cc2c[nH]cn2)NC(=O)CNC1=O [Example 4] | 0.0717 mL/min/kg | 15 h | – | 22500 pM | – | –
CC[C@H](C)[C@@H]1NC(=O)[C@H](CCCNC(=N)N)NC(=O)[C@H](CC(=O)O)NC(=O)[C@H]([C@@H](C)CC)NC(=O)[C@H](CCCNC(=N)N)NC(=O)CNC(=O)CNC(=O)[C@H](Cc2ccccc2)NC(=O)[C@@H](NC(=O)[C@H](CO)NC(=O)[C@H](CO)NC(=O)[C@H](CCCNC(=N)N)NC(=O)[C@H](CCCNC(=N)N)NC(=O)[C@H](Cc2ccncc2)NC(=O)[C@H](CO)NC(=O)CNC(=O)[C@H](CCCCN)NC(=O)[C@H](CCC(=O)O)NC(=O)[C@H](CCCCN)NC(=O)[C@H](CCC(=O)O)NC(=O)[C@H](CCCCN)NC(=O)[C@H](CCC(=O)O)NC(=O)CC[C@H](NC(=O)CCCCCCCCCCCCCCCCCCC(=O)O)C(=O)O)CSSC[C@@H](C(=O)N2CCC[C@H]2C(=O)N[C@@H](CO)C(=O)N[C@@H](Cc2ccccc2)C(=O)N[C@@H](CCCNC(=N)N)C(=O)N[C@@H](Cc2c[nH]cn2)C(=O)NCC(=O)NCC(=O)N2CCC[C@H]2C(=O)N[C@@H](CO)C(=O)N[C@@H](CO)C(=O)NCC(=O)N[C@@H](C)C(=O)N2CCC[C@H]2C(=O)N2CCC[C@H]2C(=O)N2CCC[C@H]2C(=O)N[C@@H](CO)C(N)=O)NC(=O)CNC(=O)[C@H](CC(C)C)NC(=O)CNC(=O)[C@H](CO)NC(=O)[C@H](CCC(N)=O)NC(=O)[C@H](Cc2c[nH]cn2)NC(=O)CNC1=O [Example 1] | 0.343 mL/min/kg | 11 h | – | – | 11600 pM | –
CC[C@H](C)[C@@H]1NC(=O)[C@H](CCCNC(=N)N)NC(=O)[C@H](CC(=O)O)NC(=O)[C@H]([C@@H](C)CC)NC(=O)[C@H](CCCNC(=N)N)NC(=O)CNC(=O)CNC(=O)[C@H](Cc2ccccc2)NC(=O)[C@@H](NC(=O)[C@H](CO)NC(=O)[C@H](CO)NC(=O)[C@H](CCCNC(=N)N)NC(=O)CCNC(=O)[C@H](CCCCN)NC(=O)[C@H](CCC(=O)O)NC(=O)CNC(=O)[C@H](CCCCN)NC(=O)[C@H](CCC(=O)O)NC(=O)[C@H](CCCCN)NC(=O)[C@H](CCC(=O)O)NC(=O)[C@H](CCCCN)NC(=O)[C@H](CCC(=O)O)NC(=O)CC[C@H](NC(=O)CCCCCCCCCCCCCCCCC(=O)O)C(=O)O)CSCSC[C@@H](C(=O)N2CCC[C@H]2C(=O)N[C@@H](CO)C(=O)N[C@@H](Cc2ccccc2)C(=O)N[C@@H](CCCNC(=N)N)C(=O)N[C@@H](Cc2c[nH]cn2)C(=O)NCC(=O)NCC(=O)N[C@@H](CCCCN)C(=O)N[C@@H](CO)C(=O)N[C@@H](CO)C(=O)NCC(=O)N[C@@H](C)C(=O)N2CCC[C@H]2C(=O)N2CCC[C@H]2C(=O)N2CCC[C@H]2C(=O)N[C@@H](CO)C(N)=O)NC(=O)CNC(=O)[C@H](CC(C)C)NC(=O)CNC(=O)[C@H](CO)NC(=O)[C@H](Cc2ccc(O)cc2)NC(=O)[C@H](Cc2c[nH]cn2)NC(=O)CNC1=O [Example 76] | 0.118 mL/min/kg | – | – | – | – | 30 h
{C20 diacid-γGlu}-EKEKEKG[PEG24]EK[βAla]RSSCFGGKIDRIGHQSGLGCPSFRHGSPSSGAPPPS-NH2 (linker 15-31 via CH2) [Example 7] | 0.055 mL/min/kg | 19 h | – | – | – | –
